Laboratory results from patent US5741687A (Toyo Boseki Kaubshiki Kaisha, priority 1992, dated 1998).

Legend:
sorbitol oxidase [1] = experiment: Sorbitol oxidase activity determined by H2O2 produced, with various monosaccharides and derivatives as substrate; format: biochemical, Xanthomonas maltophilia TE3539; set-up: concentration or dose not given beside the values; conditions: substrate specificity; enzyme activity with respect to D-sorbitol set at 100
Method: First, the following reaction mixture is prepared.
The enzyme activity was determined in the case where various monosaccharides and derivatives thereof were used as a substrate. The value of enzyme activity with respect to D-sorbitol was set at 100.

sorbitol oxidase [2] = experiment: as above; format: biochemical, Xanthomonas maltophilia TE3539; conditions: with respect to sorbitol

Structure (SMILES) | Relative activity (%) (sorbitol oxidase [1]) | Km (sorbitol oxidase [2]) [µM]
OC[C@H]1O[C@H](O[C@H]2[C@H](O)[C@@H](O)C(O)O[C@@H]2CO)[C@H](O)[C@@H](O)[C@@H]1O (mixture of isomers) [Maltose] | 0.00 | 
OC[C@@H](O)C(O)[C@H](O)CO [D-arabitol] | 23.20 | 
O=C(CO)[C@@H](O)[C@H](O)[C@H](O)CO [D-fructose] | 2.88 | 
O=C[C@H](O)[C@@H](O)[C@@H](O)[C@H](O)CO [D-galactose] | 0.42 | 
Cl.N[C@H]1C(O)O[C@H](CO)[C@@H](O)[C@@H]1O (stereo partly drawn) [D-glucosamine hydrochloride] | 0.00 | 
O=C[C@H](O)[C@@H](O)[C@H](O)[C@H](O)CO [D-glucose] | 0.54 | 
OC[C@@H](O)[C@@H](O)[C@H](O)[C@H](O)CO [D-mannitol] | 86.60 | 
O=C[C@@H](O)[C@@H](O)[C@H](O)[C@H](O)CO [D-mannose] | 1.01 | 
OC[C@@H](O)[C@@H](O)[C@H](O)[C@@H](O)CO [D-sorbitol] | 100.00 | 600
OC[C@@H](O)[C@H](O)[C@@H](O)CO [D-xylitol] | 89.90 | 
OCC(O)CO [Glycerol] | 3.50 | 
O[C@H]1[C@H](O)[C@@H](O)[C@H](O)[C@@H](O)[C@H]1O [Inositol] | 0.40 | 
O=C(CO)[C@@H](O)[C@H](O)[C@@H](O)CO [L-sorbose] | 10.60 | 
